From article PMC8859984 (Journal of medicinal chemistry, 2020)
Entries after “also recorded” stand apart in the source; their conditions may differ.

Columns and labels:
[1] = system: KARPAS422 xenograft model; experiment: Antitumor activity in the KARPAS422 xenograft model; format: in vivo, SCID mice; conditions: for tumor regression in KARPAS422 xenograft model: 50 and 100 mg/kg via oral gavage, daily for 28 days
[2] = system: H3K27me3; experiment: Pharmacodynamic analysis of H3K27me3 in KARPAS422 xenograft tumor tissue; format: in vivo, SCID mice; conditions: single 100 mg/kg oral administration, 24 h, Western blotting
[3] = system: KARPAS422 cells
[4] = system: tumor growth; conditions: 300 mg/kg twice a week subcutaneous injections for 5 weeks; cited from earlier work
[5] = Animal body weights during the KARPAS422 xenograft efficacy experiment; format: in vivo, SCID mice; conditions: 50 and 100 mg/kg oral gavage daily for 28 days
[6] = biological target: EED (1–441)-His protein (Homo sapiens, UniProt O75530); experiment: EED-H3K27me3 peptide competition binding assay by AlphaScreen; conditions: vs compound 21
EED (1–441)-His protein, sequence (O75530 whole entry): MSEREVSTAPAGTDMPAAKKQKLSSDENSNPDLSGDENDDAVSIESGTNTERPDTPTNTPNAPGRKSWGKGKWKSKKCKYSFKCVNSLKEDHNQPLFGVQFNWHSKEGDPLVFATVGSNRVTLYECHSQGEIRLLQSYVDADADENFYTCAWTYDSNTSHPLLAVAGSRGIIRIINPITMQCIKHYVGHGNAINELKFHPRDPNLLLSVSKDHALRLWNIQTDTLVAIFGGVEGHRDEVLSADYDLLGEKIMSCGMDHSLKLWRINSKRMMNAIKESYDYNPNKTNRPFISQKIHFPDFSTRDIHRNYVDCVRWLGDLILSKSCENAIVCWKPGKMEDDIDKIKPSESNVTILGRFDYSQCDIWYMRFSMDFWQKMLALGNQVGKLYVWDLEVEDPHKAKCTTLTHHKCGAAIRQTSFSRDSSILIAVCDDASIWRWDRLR

[7] = system: KARPAS422 cell tumor; conditions: 300 mg/kg twice daily via oral gavage; cited from earlier work

Cc1ccc(-c2cnc(NCc3c(F)ccc4c3CCO4)n3cnc(S(C)(=O)=O)c23)c(C)n1 [Compound 32, 8-(2,6-Dimethylpyridin-3-yl)-N-((5-fluoro-2,3-dihydrobenzofuran-4-yl)methyl)-1-(methylsulfonyl)imidazo[1,5-c]pyrimidin-5-amine]
tumor regression in KARPAS422 xenograft model ([1]; listed as EEDi-1056): complete tumor regression | level of H3K27me3 in KARPAS422 tumor tissue [2]: effectively reduces the level of H3K27me3

CCOC(=O)c1ncn2c(NCc3cccc4c3CCO4)ncc(-c3ccccc3)c12 [Compound 17, Ethyl 5-(((2,3-Dihydrobenzofuran-4-yl)methyl)amino)-8-phenylimidazo[1,5-c]pyrimidine-1-carboxylate]
times more potent than 16 in inhibition of cell growth in KARPAS422 ([3]; vs compound 16): 30 times

CCOC(=O)c1ncn2c(NCc3c(F)cccc3OC)ncc(-c3ccccc3)c12 [Compound 12, Ethyl 5-((2-Fluoro-6-methoxybenzyl)amino)-8-phenylimidazo-[1,5-c]pyrimidine-1-carboxylate]
times more potent than 11 in cell growth inhibition in KARPAS422 ([3]; vs compound 11): 6 times

CCOC(=O)c1ncn2c(NCc3cc(OC)ccc3F)ncc(-c3ccccc3)c12 [Compound 13, Ethyl 5-((2-Fluoro-5-methoxybenzyl)amino)-8-phenylimidazo-[1,5-c]pyrimidine-1-carboxylate]
times less potent than 12 in cell growth inhibition in KARPAS422 ([3]; vs compound 12): 8 times

CN(C)[C@H]1CN(C2CCc3cccc(F)c32)C[C@@H]1c1ccc(N2CCN(S(C)(=O)=O)CC2)cc1 (stereo partly shown) [Compound A-395]
inhibition of tumor growth [4]: 84%

CS(=O)(=O)c1ncn2c(NCc3c(F)ccc4c3CCO4)ncc(-c3ccc(C4CC4)nc3)c12 [Compound 28, 8-(6-Cyclopropylpyridin-3-yl)-N-((5-fluoro-2,3-dihydrobenzofuran-4-yl)methyl)-1-(methylsulfonyl)imidazo[1,5-c]pyrimidin-5-amine]
tumor regression in KARPAS422 xenograft model ([1]; listed as EEDi-5285): complete and durable tumor regression; also recorded: complete and long-lasting tumor regression | regrowth of tumors after end of treatment ([1]; after treatment had been stopped for 72 days, 50 and 100 mg/kg oral daily for 28 days): no regrowth of tumors was observed | level of H3K27me3 in KARPAS422 tumor tissue [2]: effectively reduces the level of H3K27me3 | animal weight loss during the entire experiment [5]: minimal weight loss | times more potent than 21 in binding to EED [6]: 3–4 times | times more potent than 21 in inhibition of KARPAS422 cell growth ([3]; vs compound 21): 3–4 times

CS(=O)(=O)c1ncn2c(NCc3c(F)ccc4c3CCO4)ncc(-c3ccc(F)cc3)c12 [Compound 24, N-((5-Fluoro-2,3-dihydrobenzofuran-4-yl)methyl)-8-(4-fluorophenyl)-1(methylsulfonyl)imidazo[1,5-c]pyrimidin-5-amine]
times less potent than 21 in inhibition of KARPAS422 cell growth ([3]; vs compound 21): 2–3 times

CCOC(=O)c1ncn2c(NCc3ccco3)ncc(-c3ccccc3)c12 [Compound 8, Ethyl 5-((Furan-2-ylmethyl)amino)-8-phenylimidazo[1,5-c]-pyrimidine-1-carboxylate]
times more potent than 7 in inhibition of cell growth in KARPAS422 ([3]; vs compound 7): 2 times

CCOC(=O)c1ncn2c(NCc3ccccc3)ncc(-c3ccccc3)c12 [Compound 10, Ethyl 5-(Benzylamino)-8-phenylimidazo[1,5-c]pyrimidine-1-carboxylate]
times less potent than 8 in cellular assay ([3]; vs compound 8, KARPAS422): 2–3 times

CS(=O)(=O)c1ccc(-c2cnc(NCc3ccco3)n3cnnc23)cc1 [EED226]
KARPAS422 cell tumor regression [7]: complete KARPAS422 cell tumor regression

CS(=O)(=O)c1ncn2c(NCc3c(F)ccc4c3CCO4)ncc(C3CCOCC3)c12 [Compound 35, N-((5-Fluoro-2,3-dihydrobenzofuran-4-yl)methyl)-1-(methylsulfonyl)-8-(tetrahydro-2H-pyran-4-yl)imidazo[1,5-c]pyrimidin-5-amine]
times less potent than 21 in binding to EED [6]: 17 times | times less potent than 21 in inhibition of KARPAS422 cell growth ([3]; vs compound 21): 24 times

CS(=O)(=O)c1ncn2c(NCc3c(F)ccc4c3CCO4)ncc(-c3ccc(C(F)F)nc3)c12 [Compound 29, 8-(6-(Difluoromethyl)pyridin-3-yl)-N-((5-fluoro-2,3-dihydrobenzofuran-4-yl)methyl)-1-(methylsulfonyl)imidazo[1,5-c]pyrimidin-5-amine]
times more potent than 21 in binding to EED [6]: 5 times
